From ChEMBL document CHEMBL3112442, “Anilino-monoindolylmaleimides as potent and selective JAK3 inhibitors” (Bioorg Med Chem Lett, 2014)

Key:
[1] = target: Tyrosine-protein kinase JAK1 (Homo sapiens, UniProt P23458)
[2] = target: Non-receptor tyrosine-protein kinase TYK2 (Homo sapiens, UniProt P29597)
[3] = target: T1, Tyrosine-protein kinase JAK3 (Homo sapiens, UniProt P52333)
T1 sequence (P52333 whole entry): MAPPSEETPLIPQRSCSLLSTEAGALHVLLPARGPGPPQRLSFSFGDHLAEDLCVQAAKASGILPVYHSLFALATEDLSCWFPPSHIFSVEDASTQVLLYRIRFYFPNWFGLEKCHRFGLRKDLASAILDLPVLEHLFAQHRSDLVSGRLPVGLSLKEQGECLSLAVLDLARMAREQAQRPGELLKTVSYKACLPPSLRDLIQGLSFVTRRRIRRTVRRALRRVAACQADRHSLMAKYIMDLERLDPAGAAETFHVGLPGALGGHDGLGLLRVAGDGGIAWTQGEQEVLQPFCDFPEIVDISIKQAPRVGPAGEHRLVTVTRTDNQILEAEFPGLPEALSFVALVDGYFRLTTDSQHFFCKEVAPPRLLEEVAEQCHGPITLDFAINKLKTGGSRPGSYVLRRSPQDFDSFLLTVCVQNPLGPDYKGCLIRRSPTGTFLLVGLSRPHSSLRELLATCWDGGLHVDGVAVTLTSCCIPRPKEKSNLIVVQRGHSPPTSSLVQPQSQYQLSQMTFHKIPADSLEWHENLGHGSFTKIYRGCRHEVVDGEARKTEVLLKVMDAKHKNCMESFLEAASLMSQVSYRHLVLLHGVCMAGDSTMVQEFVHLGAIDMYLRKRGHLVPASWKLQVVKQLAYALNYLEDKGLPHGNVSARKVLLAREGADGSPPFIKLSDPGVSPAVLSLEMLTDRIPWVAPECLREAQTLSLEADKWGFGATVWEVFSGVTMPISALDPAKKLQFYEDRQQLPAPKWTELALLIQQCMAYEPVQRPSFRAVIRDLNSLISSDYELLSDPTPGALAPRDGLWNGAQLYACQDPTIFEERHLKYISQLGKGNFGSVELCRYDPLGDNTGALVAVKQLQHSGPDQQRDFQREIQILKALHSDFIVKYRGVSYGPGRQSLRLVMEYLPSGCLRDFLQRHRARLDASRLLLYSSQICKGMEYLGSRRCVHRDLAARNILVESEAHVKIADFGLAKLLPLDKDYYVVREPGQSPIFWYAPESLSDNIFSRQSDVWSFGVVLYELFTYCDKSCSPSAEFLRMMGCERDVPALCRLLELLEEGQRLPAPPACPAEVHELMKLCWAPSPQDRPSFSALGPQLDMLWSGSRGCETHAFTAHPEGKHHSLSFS

Chain of Tyrosine-protein kinase JAK1 (P23458 whole entry): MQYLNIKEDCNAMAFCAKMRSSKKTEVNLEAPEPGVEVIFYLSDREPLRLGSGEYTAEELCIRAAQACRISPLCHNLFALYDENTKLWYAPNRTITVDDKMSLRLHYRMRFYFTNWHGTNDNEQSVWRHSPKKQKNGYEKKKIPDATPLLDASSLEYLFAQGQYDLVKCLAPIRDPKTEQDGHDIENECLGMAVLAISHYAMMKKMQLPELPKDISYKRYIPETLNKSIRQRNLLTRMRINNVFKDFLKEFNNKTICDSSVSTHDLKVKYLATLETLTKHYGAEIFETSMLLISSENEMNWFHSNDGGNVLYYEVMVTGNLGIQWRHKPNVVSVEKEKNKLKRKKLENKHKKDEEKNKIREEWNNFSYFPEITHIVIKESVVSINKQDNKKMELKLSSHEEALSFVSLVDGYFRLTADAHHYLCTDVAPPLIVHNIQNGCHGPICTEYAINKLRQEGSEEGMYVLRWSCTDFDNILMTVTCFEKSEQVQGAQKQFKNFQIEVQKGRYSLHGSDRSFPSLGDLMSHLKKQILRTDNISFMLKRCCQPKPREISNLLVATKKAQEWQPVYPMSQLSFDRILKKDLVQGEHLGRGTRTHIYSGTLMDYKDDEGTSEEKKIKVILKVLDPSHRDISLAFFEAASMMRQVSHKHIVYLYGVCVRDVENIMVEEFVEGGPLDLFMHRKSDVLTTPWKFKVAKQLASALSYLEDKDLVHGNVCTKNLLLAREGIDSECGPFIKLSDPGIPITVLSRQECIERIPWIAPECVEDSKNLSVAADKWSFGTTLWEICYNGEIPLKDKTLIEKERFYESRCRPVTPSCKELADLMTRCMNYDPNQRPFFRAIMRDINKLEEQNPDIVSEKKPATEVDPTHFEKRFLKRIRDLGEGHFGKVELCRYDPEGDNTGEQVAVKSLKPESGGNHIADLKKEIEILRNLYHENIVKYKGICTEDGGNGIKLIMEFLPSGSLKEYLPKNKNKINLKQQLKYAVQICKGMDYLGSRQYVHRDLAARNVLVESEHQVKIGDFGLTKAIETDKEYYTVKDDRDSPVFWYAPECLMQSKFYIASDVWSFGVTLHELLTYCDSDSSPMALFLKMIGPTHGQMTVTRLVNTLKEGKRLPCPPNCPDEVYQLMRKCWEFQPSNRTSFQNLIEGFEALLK
Chain of Non-receptor tyrosine-protein kinase TYK2 (P29597 whole entry): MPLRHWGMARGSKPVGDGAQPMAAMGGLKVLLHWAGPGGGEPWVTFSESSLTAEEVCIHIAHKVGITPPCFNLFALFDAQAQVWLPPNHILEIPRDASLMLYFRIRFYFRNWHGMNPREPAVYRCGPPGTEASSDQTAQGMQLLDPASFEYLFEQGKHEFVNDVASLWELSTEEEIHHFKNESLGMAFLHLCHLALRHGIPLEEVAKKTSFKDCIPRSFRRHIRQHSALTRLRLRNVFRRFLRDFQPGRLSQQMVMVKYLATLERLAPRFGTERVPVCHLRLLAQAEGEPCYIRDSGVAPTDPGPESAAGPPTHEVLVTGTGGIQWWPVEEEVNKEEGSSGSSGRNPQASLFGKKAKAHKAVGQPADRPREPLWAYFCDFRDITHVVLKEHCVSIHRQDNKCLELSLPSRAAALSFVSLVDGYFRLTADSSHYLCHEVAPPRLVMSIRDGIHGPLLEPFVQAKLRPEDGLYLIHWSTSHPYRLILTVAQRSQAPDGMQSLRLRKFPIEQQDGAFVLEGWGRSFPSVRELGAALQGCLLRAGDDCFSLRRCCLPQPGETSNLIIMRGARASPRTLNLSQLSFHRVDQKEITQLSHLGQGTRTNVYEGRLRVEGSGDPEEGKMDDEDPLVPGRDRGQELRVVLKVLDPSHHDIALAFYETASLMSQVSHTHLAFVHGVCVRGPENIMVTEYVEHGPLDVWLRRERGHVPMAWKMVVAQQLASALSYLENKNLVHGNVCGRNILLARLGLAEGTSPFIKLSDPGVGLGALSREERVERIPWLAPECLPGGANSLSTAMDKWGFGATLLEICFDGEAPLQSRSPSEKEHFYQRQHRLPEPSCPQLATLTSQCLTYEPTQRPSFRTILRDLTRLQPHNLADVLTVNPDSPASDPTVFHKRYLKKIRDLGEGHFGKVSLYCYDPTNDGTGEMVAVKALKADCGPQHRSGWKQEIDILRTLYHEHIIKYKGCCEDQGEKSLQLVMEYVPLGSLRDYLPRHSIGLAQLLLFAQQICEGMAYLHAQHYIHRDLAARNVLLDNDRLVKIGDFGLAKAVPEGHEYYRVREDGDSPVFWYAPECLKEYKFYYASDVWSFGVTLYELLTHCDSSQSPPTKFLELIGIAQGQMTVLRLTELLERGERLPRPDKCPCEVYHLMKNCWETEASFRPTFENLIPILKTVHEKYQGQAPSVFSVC

Row | SMILES | IC50 [1] | IC50 [2] | IC50 [3]
1 | CC(C)(O)C(=O)N1CCN(c2ccc(C(F)(F)F)c(C3=C(c4c[nH]c5ccccc45)C(=O)NC3=O)c2)CC1 | 0.311 µM | 1.69 µM | –
2 | O=C1NC(=O)C(c2c[nH]c3ccccc23)=C1Nc1cccc(O[C@H]2CCN(c3ccnc(F)c3)C2)c1 | 0.628 µM | – | 0.013 µM
3 | O=C1NC(=O)C(c2c[nH]c3ccccc23)=C1Nc1cccc(O[C@@H]2CCN(c3ccnc(F)c3)C2)c1 | 4.9 µM | > 10 µM | 0.497 µM
4 | O=C1NC(=O)C(c2c[nH]c3ccccc23)=C1Nc1cccc(C2CCN(c3ccnc(F)c3)CC2)c1 | > 10 µM | > 10 µM | > 10 µM
5 | O=C1NC(=O)C(c2c[nH]c3ccccc23)=C1Nc1cccc(C2CN(c3ccnc(F)c3)C2)c1 | 11.1 µM | > 10 µM | 0.576 µM
6 | O=C1NC(=O)C(c2c[nH]c3ccccc23)=C1Nc1cccc(OCCCn2ccnc2)c1 | 0.3 µM | > 10 µM | 0.128 µM
7 | O=C1NC(=O)C(c2c[nH]c3ccccc23)=C1Nc1cccc(OCCn2ccnc2)c1 | > 10 µM | > 10 µM | 1.79 µM
8 | O=C1NC(=O)C(c2c[nH]c3ccccc23)=C1Nc1ccc(OCCn2ccnc2)cc1 | > 10 µM | 7.37 µM | 0.278 µM
9 | O=C1NC(=O)C(c2c[nH]c3ccccc23)=C1Nc1ccc(OCCCn2ccnc2)cc1 | 8.64 µM | > 10 µM | 1.15 µM
10 | O=C1NC(=O)C(c2c[nH]c3ccccc23)=C1Nc1ccccc1OCCn1ccnc1 | > 10 µM | > 10 µM | 9.37 µM
11 | O=C1NC(=O)C(c2c[nH]c3ccccc23)=C1Nc1ccc(OCCCNc2ccnc(F)c2)cc1 | 1.06 µM | > 10 µM | 0.135 µM
12 | O=C1NC(=O)C(c2c[nH]c3ccccc23)=C1Nc1ccc(OCCNc2ccnc(F)c2)cc1 | 2.06 µM | 9.84 µM | 0.201 µM
13 | O=C1NC(=O)C(c2c[nH]c3ccccc23)=C1Nc1ccccc1OCCNc1ccnc(F)c1 | > 10 µM | > 10 µM | > 10 µM
14 | O=C1NC(=O)C(c2c[nH]c3ccccc23)=C1Nc1cccc(OCCNc2ccnc(F)c2)c1 | 0.423 µM | > 10 µM | 0.029 µM
15 | Cn1cc(C2=C(Nc3cccc(OCCNc4ccnc(F)c4)c3)C(=O)NC2=O)c2ccccc21 | 1.78 µM | 5.1 µM | 0.179 µM
16 | CN(CCOc1cccc(NC2=C(c3c[nH]c4ccccc34)C(=O)NC2=O)c1)c1ccnc(F)c1 | > 10 µM | 0.995 µM | 0.046 µM
17 | O=C1NC(=O)C(c2c[nH]c3ccccc23)=C1Nc1cccc(OCCNc2ccccn2)c1 | – | – | 1.5 µM
18 | O=C1NC(=O)C(c2c[nH]c3ccccc23)=C1Nc1cccc(OCCNc2cnccn2)c1 | – | – | 0.408 µM
19 | O=C1NC(=O)C(c2c[nH]c3ccccc23)=C1Nc1cccc(OCCNc2ccccc2)c1 | – | – | 1.38 µM
20 | O=C1NC(=O)C(c2c[nH]c3ccccc23)=C1Nc1cccc(OCCNc2cc(F)cc(F)c2)c1 | – | – | 1.39 µM
21 | O=C1NC(=O)C(c2ccccc2)=C1Nc1cccc(OCCNc2ccnc(F)c2)c1 | 2.17 µM | > 10 µM | 0.576 µM
22 | O=C1C=C(Nc2cccc(OCCNc3ccnc(F)c3)c2)C(=O)N1 | > 10 µM | > 10 µM | > 10 µM
23 | O=C1NC(=O)C(c2c[nH]c3ccccc23)=C1Nc1cccc(OC2CCN(c3ccnc(F)c3)CC2)c1 | 4.82 µM | > 10 µM | 0.625 µM
24 | O=C1NC(=O)C(c2c[nH]c3ccccc23)=C1Nc1cccc(OC2CN(c3ccnc(F)c3)C2)c1 | 4.1 µM | > 10 µM | 0.2 µM
25 | O=C1NC(=O)C(c2cn(CCCn3ccnc3)c3ccccc23)=C1Nc1ccccc1 | 0.77 µM | 2.31 µM | 0.017 µM
26 | O=C1NC(=O)C(c2c[nH]c3ccccc23)=C1Nc1cccc(C2CCN(c3ccnc(F)c3)C2)c1 (racemic) | > 10 µM | > 10 µM | > 10 µM
27 | O=C1NC(=O)C(c2c[nH]c3ccccc23)=C1Nc1cccc(OC2CCCN(c3ccnc(F)c3)C2)c1 (racemic) | > 10 µM | > 10 µM | 0.163 µM
28 | O=C1NC(=O)C(c2c[nH]c3ccccc23)=C1Nc1cccc(OC2CCN(c3ccnc(F)c3)C2)c1 (racemic) | 0.564 µM | 11.9 µM | 0.012 µM
